Data from the supplement of paper PMC10307832.

Tests used:
Test in all cases: relative viability (nuclei count vs DMSO), 5 days (fraction); higher = more cells survive
IDH-C35 + Trametinib = compound: Cc1ccccc1C(C(=O)NC1CCCCC1)N(C(=O)Cn1ccnc1C)c1cccc(F)c1 [IDH-C35] + CC(=O)Nc1cccc(-n2c(=O)n(C3CC3)c(=O)c3c(Nc4ccc(I)cc4F)n(C)c(=O)c(C)c32)c1 [Trametinib] (partner 0.02 µM)
How it was run: (§1)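 Nuclei were stained with Hoechst during a one-step fixation (final 0.05% Triton X-100, 1% formaldehyde, 1 ug/ml Hoechst) carried out 5 days after dosing, then counted on 4× images. The cells, lung cancer lines in 1536-well plates, had been dosed by pin tool the day after seeding with one drug alone or a fixed anchor-drug dose plus five library-drug doses (not always all listed) in √10 steps. Relative viability is the nuclei count in treated wells divided by that in vehicle wells, and each value is the median of duplicate plates.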

IDH-C35 + Pictilisib = compound: Cc1ccccc1C(C(=O)NC1CCCCC1)N(C(=O)Cn1ccnc1C)c1cccc(F)c1 [IDH-C35] + CS(=O)(=O)N1CCN(Cc2cc3nc(-c4cccc5[nH]ncc45)nc(N4CCOCC4)c3s2)CC1 [Pictilisib] (partner 1 µM)
How it was run: as §1

IDH-C35 + Foretinib = compound: Cc1ccccc1C(C(=O)NC1CCCCC1)N(C(=O)Cn1ccnc1C)c1cccc(F)c1 [IDH-C35] + COc1cc2c(Oc3ccc(NC(=O)C4(C(=O)Nc5ccc(F)cc5)CC4)cc3F)ccnc2cc1OCCCN1CCOCC1 [Foretinib] (partner 0.25 µM)
How it was run: as §1

[1] = compound: CC1=C(C(=NN1)C)CC2=C(C3=C(S2)N(C(=O)N(C3=O)C)CC(C)C)C(=O)N4C[C@@H](CO4)O + Cc1nc(Nc2ncc(C(=O)Nc3c(C)cccc3Cl)s2)cc(N2CCN(CCO)CC2)n1 [Dasatinib] (partner 0.075 µM)
How it was run: as §1

HCC-366
relative viability (IDH-C35 + Trametinib; first compound 0.08 µM): 0.293 | relative viability (IDH-C35 + Trametinib; first compound 0.253 µM): 0.376 | relative viability (IDH-C35 + Trametinib; first compound 0.8 µM): 0.407 | relative viability (IDH-C35 + Trametinib; first compound 2.53 µM): 0.303 | relative viability (IDH-C35 + Trametinib; first compound 8 µM): 0.31 | relative viability (IDH-C35 + Pictilisib; first compound 0.08 µM): 0.12 | relative viability (IDH-C35 + Pictilisib; first compound 0.253 µM): 0.132 | relative viability (IDH-C35 + Pictilisib; first compound 0.8 µM): 0.169 | relative viability (IDH-C35 + Pictilisib; first compound 2.53 µM): 0.151 | relative viability (IDH-C35 + Pictilisib; first compound 8 µM): 0.178 | relative viability (IDH-C35 + Foretinib; first compound 0.08 µM): 0.986 | relative viability (IDH-C35 + Foretinib; first compound 0.253 µM): 0.981 | relative viability (IDH-C35 + Foretinib; first compound 0.8 µM): 0.937 | relative viability (IDH-C35 + Foretinib; first compound 8 µM): 0.938 | relative viability ([1]; first compound 0.0025 µM): 0.601 | relative viability ([1]; first compound 0.007906 µM): 0.813 | relative viability ([1]; first compound 0.025 µM): 0.836 | relative viability ([1]; first compound 0.07906 µM): 0.635 | relative viability ([1]; first compound 0.25 µM): 0.789

EMC-BAC-2
relative viability (IDH-C35 + Trametinib; first compound 0.08 µM): 0.888 | relative viability (IDH-C35 + Trametinib; first compound 0.253 µM): 0.816 | relative viability (IDH-C35 + Trametinib; first compound 0.8 µM): 0.837 | relative viability (IDH-C35 + Trametinib; first compound 2.53 µM): 0.823 | relative viability (IDH-C35 + Trametinib; first compound 8 µM): 0.833 | relative viability (IDH-C35 + Pictilisib; first compound 0.08 µM): 0.493 | relative viability (IDH-C35 + Pictilisib; first compound 0.253 µM): 0.55 | relative viability (IDH-C35 + Pictilisib; first compound 0.8 µM): 0.51 | relative viability (IDH-C35 + Pictilisib; first compound 2.53 µM): 0.487 | relative viability (IDH-C35 + Pictilisib; first compound 8 µM): 0.521 | relative viability (IDH-C35 + Foretinib; first compound 0.08 µM): 0.947 | relative viability (IDH-C35 + Foretinib; first compound 0.253 µM): 1.04 | relative viability (IDH-C35 + Foretinib; first compound 0.8 µM): 1.1 | relative viability (IDH-C35 + Foretinib; first compound 2.53 µM): 0.925 | relative viability (IDH-C35 + Foretinib; first compound 8 µM): 0.944 | relative viability ([1]; first compound 0.0025 µM): 0.341 | relative viability ([1]; first compound 0.007906 µM): 0.364 | relative viability ([1]; first compound 0.025 µM): 0.326 | relative viability ([1]; first compound 0.07906 µM): 0.336 | relative viability ([1]; first compound 0.25 µM): 0.34

NCI-H2405
relative viability (IDH-C35 + Trametinib; first compound 0.08 µM): 0.66 | relative viability (IDH-C35 + Trametinib; first compound 0.253 µM): 0.679 | relative viability (IDH-C35 + Trametinib; first compound 0.8 µM): 0.59 | relative viability (IDH-C35 + Trametinib; first compound 2.53 µM): 0.58 | relative viability (IDH-C35 + Trametinib; first compound 8 µM): 0.589 | relative viability (IDH-C35 + Pictilisib; first compound 0.08 µM): 0.487 | relative viability (IDH-C35 + Pictilisib; first compound 0.253 µM): 0.363 | relative viability (IDH-C35 + Pictilisib; first compound 0.8 µM): 0.377 | relative viability (IDH-C35 + Pictilisib; first compound 8 µM): 0.52 | relative viability (IDH-C35 + Foretinib; first compound 0.08 µM): 1.04 | relative viability (IDH-C35 + Foretinib; first compound 0.253 µM): 1.04 | relative viability (IDH-C35 + Foretinib; first compound 0.8 µM): 1.06 | relative viability (IDH-C35 + Foretinib; first compound 2.53 µM): 1.14 | relative viability (IDH-C35 + Foretinib; first compound 8 µM): 1.05 | relative viability ([1]; first compound 0.0025 µM): 0.216 | relative viability ([1]; first compound 0.007906 µM): 0.223 | relative viability ([1]; first compound 0.07906 µM): 0.238 | relative viability ([1]; first compound 0.25 µM): 0.224

NCI-H358
relative viability (IDH-C35 + Trametinib; first compound 0.08 µM): 0.132 | relative viability (IDH-C35 + Trametinib; first compound 0.253 µM): 0.152 | relative viability (IDH-C35 + Trametinib; first compound 0.8 µM): 0.128 | relative viability (IDH-C35 + Trametinib; first compound 2.53 µM): 0.159 | relative viability (IDH-C35 + Trametinib; first compound 8 µM): 0.144 | relative viability (IDH-C35 + Pictilisib; first compound 0.08 µM): 0.408 | relative viability (IDH-C35 + Pictilisib; first compound 0.253 µM): 0.33 | relative viability (IDH-C35 + Pictilisib; first compound 0.8 µM): 0.317 | relative viability (IDH-C35 + Pictilisib; first compound 2.53 µM): 0.366 | relative viability (IDH-C35 + Pictilisib; first compound 8 µM): 0.385 | relative viability (IDH-C35 + Foretinib; first compound 0.08 µM): 0.757 | relative viability (IDH-C35 + Foretinib; first compound 0.253 µM): 0.738 | relative viability (IDH-C35 + Foretinib; first compound 0.8 µM): 0.685 | relative viability (IDH-C35 + Foretinib; first compound 2.53 µM): 0.769 | relative viability (IDH-C35 + Foretinib; first compound 8 µM): 0.603 | relative viability ([1]; first compound 0.0025 µM): 0.18 | relative viability ([1]; first compound 0.007906 µM): 0.198 | relative viability ([1]; first compound 0.025 µM): 0.166 | relative viability ([1]; first compound 0.07906 µM): 0.162 | relative viability ([1]; first compound 0.25 µM): 0.15

NCI-H1944
relative viability (IDH-C35 + Trametinib; first compound 0.08 µM): 0.392 | relative viability (IDH-C35 + Trametinib; first compound 0.253 µM): 0.421 | relative viability (IDH-C35 + Trametinib; first compound 0.8 µM): 0.42 | relative viability (IDH-C35 + Trametinib; first compound 2.53 µM): 0.332 | relative viability (IDH-C35 + Trametinib; first compound 8 µM): 0.393 | relative viability (IDH-C35 + Pictilisib; first compound 0.08 µM): 0.38 | relative viability (IDH-C35 + Pictilisib; first compound 0.253 µM): 0.364 | relative viability (IDH-C35 + Pictilisib; first compound 0.8 µM): 0.323 | relative viability (IDH-C35 + Pictilisib; first compound 2.53 µM): 0.343 | relative viability (IDH-C35 + Pictilisib; first compound 8 µM): 0.346 | relative viability (IDH-C35 + Foretinib; first compound 0.08 µM): 0.91 | relative viability (IDH-C35 + Foretinib; first compound 0.253 µM): 0.934 | relative viability (IDH-C35 + Foretinib; first compound 0.8 µM): 0.888 | relative viability (IDH-C35 + Foretinib; first compound 2.53 µM): 0.827 | relative viability (IDH-C35 + Foretinib; first compound 8 µM): 0.798 | relative viability ([1]; first compound 0.0025 µM): 0.238 | relative viability ([1]; first compound 0.007906 µM): 0.253 | relative viability ([1]; first compound 0.025 µM): 0.235 | relative viability ([1]; first compound 0.07906 µM): 0.234 | relative viability ([1]; first compound 0.25 µM): 0.221

EPLC-272H
relative viability (IDH-C35 + Trametinib; first compound 0.08 µM): 0.259 | relative viability (IDH-C35 + Trametinib; first compound 0.253 µM): 0.308 | relative viability (IDH-C35 + Trametinib; first compound 0.8 µM): 0.324 | relative viability (IDH-C35 + Trametinib; first compound 8 µM): 0.257 | relative viability (IDH-C35 + Pictilisib; first compound 0.08 µM): 0.369 | relative viability (IDH-C35 + Pictilisib; first compound 0.253 µM): 0.338 | relative viability (IDH-C35 + Pictilisib; first compound 0.8 µM): 0.283 | relative viability (IDH-C35 + Pictilisib; first compound 8 µM): 0.329 | relative viability (IDH-C35 + Foretinib; first compound 0.08 µM): 0.659 | relative viability (IDH-C35 + Foretinib; first compound 0.253 µM): 0.828 | relative viability (IDH-C35 + Foretinib; first compound 0.8 µM): 0.751 | relative viability (IDH-C35 + Foretinib; first compound 2.53 µM): 0.71 | relative viability (IDH-C35 + Foretinib; first compound 8 µM): 0.733 | relative viability ([1]; first compound 0.0025 µM): 0.527 | relative viability ([1]; first compound 0.007906 µM): 0.376 | relative viability ([1]; first compound 0.025 µM): 0.418 | relative viability ([1]; first compound 0.07906 µM): 0.24 | relative viability ([1]; first compound 0.25 µM): 0.305

NCI-H1915
relative viability (IDH-C35 + Trametinib; first compound 0.08 µM): 0.316 | relative viability (IDH-C35 + Trametinib; first compound 0.253 µM): 0.315 | relative viability (IDH-C35 + Trametinib; first compound 0.8 µM): 0.275 | relative viability (IDH-C35 + Trametinib; first compound 2.53 µM): 0.278 | relative viability (IDH-C35 + Trametinib; first compound 8 µM): 0.276 | relative viability (IDH-C35 + Pictilisib; first compound 0.08 µM): 0.976 | relative viability (IDH-C35 + Pictilisib; first compound 0.253 µM): 0.914 | relative viability (IDH-C35 + Pictilisib; first compound 0.8 µM): 0.975 | relative viability (IDH-C35 + Pictilisib; first compound 2.53 µM): 0.934 | relative viability (IDH-C35 + Pictilisib; first compound 8 µM): 0.914 | relative viability (IDH-C35 + Foretinib; first compound 0.08 µM): 1.07 | relative viability (IDH-C35 + Foretinib; first compound 0.253 µM): 1.13 | relative viability (IDH-C35 + Foretinib; first compound 0.8 µM): 1.07 | relative viability (IDH-C35 + Foretinib; first compound 2.53 µM): 1.05 | relative viability (IDH-C35 + Foretinib; first compound 8 µM): 1.07 | relative viability ([1]; first compound 0.0025 µM): 0.284 | relative viability ([1]; first compound 0.007906 µM): 0.374 | relative viability ([1]; first compound 0.025 µM): 0.338 | relative viability ([1]; first compound 0.07906 µM): 0.3 | relative viability ([1]; first compound 0.25 µM): 0.291

NCI-H596
relative viability (IDH-C35 + Trametinib; first compound 0.08 µM): 0.892 | relative viability (IDH-C35 + Trametinib; first compound 0.253 µM): 0.722 | relative viability (IDH-C35 + Trametinib; first compound 0.8 µM): 0.808 | relative viability (IDH-C35 + Trametinib; first compound 2.53 µM): 0.746 | relative viability (IDH-C35 + Trametinib; first compound 8 µM): 0.737 | relative viability (IDH-C35 + Pictilisib; first compound 0.08 µM): 0.434 | relative viability (IDH-C35 + Pictilisib; first compound 0.253 µM): 0.442 | relative viability (IDH-C35 + Pictilisib; first compound 0.8 µM): 0.435 | relative viability (IDH-C35 + Pictilisib; first compound 2.53 µM): 0.537 | relative viability (IDH-C35 + Pictilisib; first compound 8 µM): 0.384 | relative viability (IDH-C35 + Foretinib; first compound 0.08 µM): 0.948 | relative viability (IDH-C35 + Foretinib; first compound 0.253 µM): 0.796 | relative viability (IDH-C35 + Foretinib; first compound 0.8 µM): 0.775 | relative viability (IDH-C35 + Foretinib; first compound 8 µM): 0.763 | relative viability ([1]; first compound 0.0025 µM): 0.586 | relative viability ([1]; first compound 0.007906 µM): 0.619 | relative viability ([1]; first compound 0.025 µM): 0.658 | relative viability ([1]; first compound 0.07906 µM): 0.512 | relative viability ([1]; first compound 0.25 µM): 0.594
